Test results from paper PMC10174317, “^18F-labeled FGFR1 peptide: a new PET probe for subtype FGFR1 receptor imaging” (Frontiers in Oncology, 2023).
Read-outs that look alike come from different tables or passages of the source. Where a SMILES comes first, the peptide text is derived from it. The star is where a group is joined. NOTA = O=C(O)CN1CCN(CC(=O)O)CCN(CC(=O)*)CC1; AEEA = NCCOCCOCC(=O)O

Test: Micro-PET/CT biodistribution in RT-112 xenografts
Format: in vivo, BALB/c nude mice
Conditions: female, BALB/c nude, mouse, iv, total radioactivity, 11.1 MBq tail vein, micro-PET/CT ROI, mean ± SD; for tissue uptake at 0.5 h: 30 min post-injection; for tissue uptake at 1 h: 60 min post-injection; for tissue uptake at 2 h: 120 min post-injection
Method: All animal experiments were carried out in accordance with the Laboratory Animal Ethical Review of Animal Guidelines of China. BALB/c nude mice (sex, female; age, 4 weeks, body weight range, 19-21 g; China) were used for this study. Four cell lines (2*10^7 cells/nude mouse) were subcutaneously injected into the right forelimb to induce solid tumors. All xenograft nude mice were housed in laminar flow cabinets in a specific pathogen-free (SPF) environment and were provided ad libitum access to food and water at the Laboratory Animal Center of the Fourth Hospital of Hebei Medical University (China). The indication for micro-PET/CT imaging was xenografts with a tumor volume of 50-130 mm^3. All animal experiments strictly adhered to the Principles of the Laboratory Animal Ethical Committee of the Fourth Hospital Hebei Medical University (No. 2020016).
Xenograft mice (n=5) were fastly injected of 200 µl of [^18F]F-FGFR1 (11.1 MBq) through tail vein. For the in vivo blocking study, RT-112 (FGFR1-high expression) tumor-bearing mice (n = 5) were injected with a tracer that was mixed with 200-fold (1.58 mg) unlabeled peptide to saturate the receptors in the tumors. Mice were anesthetized via 3% isoflurane inhalation (RWD Life Science Inc. China) for induction and 2% isoflurane inhalation for maintenance. Micro-PET/CT imaging was performed on a micro-PET/SPECT/CT machine (NOVEL MEDICAL Equipment Ltd. China). Whole-body scans were performed 30, 60 and 120 min after tracer administration. The CT scanning parameters were 80 kV, 0.5 mA, 2000 ms/frames, and 360 frames; the images were reconstructed with a 512*512 matrix and a slice thickness of 0.18 mm. PET images were acquired with a 140*140 matrix and 10 min of total acquisition time. Reconstructed images were processed with the comprehensive image analysis software Pmod v4.201 (PMOD Technologies LLC. Switzerland). The biodistribution of the major organs (brain, heart, lung, liver, kidney, bone and muscle) and tumor were analyzed by manually outlining the regions of interest (ROIs) of the entire organs and tissue at each time point of the micro-PET/CT scan. The radioactivity accumulated in bone and muscle was measured in the limbs without xenograft tumors.

[1] = bone, n=5, read-out: Biodistribution, Bone
[2] = brain, n=5, read-out: Biodistribution, Brain
[3] = heart, n=5, read-out: Biodistribution, Heart
[4] = kidney, n=5, read-out: Biodistribution, Kidney
[5] = liver, n=5, read-out: Biodistribution, Liver
[6] = lung, n=5, read-out: Biodistribution, Lung
[7] = muscle, n=5, read-out: Biodistribution, Muscle
[8] = tumor, n=5, read-out: Biodistribution, Tumor

tissue uptake at 0.5 h [1]: 0.33 ± 0.1 %ID/g
tissue uptake at 1 h [1]: 0.35 ± 0.12 %ID/g
tissue uptake at 2 h [1]: 0.48 ± 0.23 %ID/g
tissue uptake at 0.5 h [2]: 0.66 ± 0.05 %ID/g
tissue uptake at 1 h [2]: 0.69 ± 0.03 %ID/g
tissue uptake at 2 h [2]: 0.03 ± 0.01 %ID/g
tissue uptake at 0.5 h [3]: 1.02 ± 0.11 %ID/g
tissue uptake at 1 h [3]: 0.75 ± 0.06 %ID/g
tissue uptake at 2 h [3]: 0.1 ± 0.03 %ID/g
tissue uptake at 0.5 h [4]: 9.44 ± 0.58 %ID/g
tissue uptake at 1 h [4]: 6.85 ± 0.77 %ID/g
tissue uptake at 2 h [4]: 19 ± 4.82 %ID/g
tissue uptake at 0.5 h [5]: 1.35 ± 0.23 %ID/g
tissue uptake at 1 h [5]: 1.43 ± 0.06 %ID/g
tissue uptake at 2 h [5]: 0.17 ± 0.08 %ID/g
tissue uptake at 0.5 h [6]: 0.75 ± 0.11 %ID/g
tissue uptake at 1 h [6]: 0.65 ± 0.09 %ID/g
tissue uptake at 2 h [6]: 0.14 ± 0.05 %ID/g
tissue uptake at 0.5 h [7]: 0.24 ± 0.05 %ID/g
tissue uptake at 1 h [7]: 0.28 ± 0.03 %ID/g
tissue uptake at 2 h [7]: 0.09 ± 0.02 %ID/g
tissue uptake at 0.5 h [8]: 3.84 ± 0.17 %ID/g
tissue uptake at 1 h [8]: 2.6 ± 0.1 %ID/g
tissue uptake at 2 h [8]: 1.35 ± 0.07 %ID/g
SMILES: CC(C)C[C@H](NC(=O)[C@H](CO)NC(=O)[C@H](CCCCN)NC(=O)[C@H](Cc1c[nH]c2ccccc12)NC(=O)[C@H](CCC(=O)O)NC(=O)[C@H](C)NC(=O)[C@H](CCCCN)NC(=O)COCCOCCNC(=O)CN1CCN(CC(=O)O)CCN(CC(=O)O)CC1)C(=O)NCC(=O)N[C@@H](CCC(=O)O)C(=O)N[C@@H](CCC(=O)O)C(=O)N[C@@H](C)C(=O)N[C@@H](Cc1c[nH]c2ccccc12)C(=O)N[C@@H](Cc1c[nH]cn1)C(=O)N[C@@H](CO)C(=O)N[C@@H](CCCCN)C(=O)O [[^18F]F-FGFR1] ({NOTA-AEEA}-KAEWKSLGEEAWHSK-OH; N-terminus and C-terminus assumed)
